Where two headings read alike, the source gives them in different places.
Assays:
Kidney Bean = assay: Phytotoxicity on various crops; format: in vivo; design: key: Symbol — indicates that no toxicity was observed; settings: 500 ppm sprayed; checked visually after 10 days
Summary of the method: (§1)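 Plants were sprayed with an aqueous dilution of an emulsifiable concentrate at 500 ppm of active ingredient, then kept under greenhouse conditions. Injury was assessed by eye ten days later.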

Rice = assay: Phytotoxicity on various crops; format: in vivo; design: key: Symbol — indicates that no toxicity was observed; settings: 500 ppm sprayed; checked visually after 10 days
Summary of the method: as §1

Tea = assay: Phytotoxicity on various crops; format: in vivo; design: key: Symbol — indicates that no toxicity was observed; settings: 500 ppm sprayed; checked visually after 10 days
Summary of the method: as §1

Apple = assay: Phytotoxicity on various crops; format: in vivo; design: key: Symbol — indicates that no toxicity was observed; settings: 500 ppm sprayed; checked visually after 10 days
Summary of the method: as §1

Beet = assay: Phytotoxicity on various crops; format: in vivo; design: key: Symbol — indicates that no toxicity was observed; settings: 500 ppm sprayed; checked visually after 10 days
Summary of the method: as §1

Tomato = assay: Phytotoxicity on various crops; format: in vivo; design: key: Symbol — indicates that no toxicity was observed; settings: 500 ppm sprayed; checked visually after 10 days
Summary of the method: as §1

Green Pepper = assay: Phytotoxicity on various crops; format: in vivo; design: key: Symbol — indicates that no toxicity was observed; settings: 500 ppm sprayed; checked visually after 10 days
Summary of the method: as §1

Cucumber = assay: Phytotoxicity on various crops; format: in vivo; design: key: Symbol — indicates that no toxicity was observed; settings: 500 ppm sprayed; checked visually after 10 days
Summary of the method: as §1

egg plant = assay: Phytotoxicity on various crops; format: in vivo; design: key: Symbol — indicates that no toxicity was observed; settings: 500 ppm sprayed; checked visually after 10 days
Summary of the method: as §1

Cabbage = assay: Phytotoxicity on various crops; format: in vivo; design: key: Symbol — indicates that no toxicity was observed; settings: 500 ppm sprayed; checked visually after 10 days
Summary of the method: as §1

Cotton = assay: Phytotoxicity on various crops; format: in vivo; design: key: Symbol — indicates that no toxicity was observed; settings: 500 ppm sprayed; checked visually after 10 days
Summary of the method: as §1

diamond back moth = assay: Insecticidal effect on diamond-back moth (cabbage leaf dip); format: in vivo, Plutella xylostella; settings: 100 ppm, after 72 hours, 25°C
Method: (§2) (A) An emulsifiable concentrate prepared as described in Formulation Example 1 was diluted with water to a predetermined concentration and leaves of a cabbage were dipped into the dilute emulsion for 10 seconds followed by drying in air, and charged in a 60 ml volume cup made of vinyl chloride resin. Then, thirty 3rd-instar larvae of diamond back moth were put in each cup, and the cups were kept at 25°C. After 72 hours, percent mortality was assessed and the test was replicated 3 times for each treatment.
as §2, with “(B) An” for “(A) An”, “Example 4” for “Example 1”

tobacco cutworm [1] = assay: Long-lasting insecticidal effect on tobacco cutworm (sprayed cabbage plantlet); format: in vivo, Prodenia litura; settings: concentration 500 (unit not given), mortality after 48 hours; for Percent Mortality After Application 3rd Day: leaves cut on 3rd day; for Percent Mortality After Application 5th Day: leaves cut on 5th day; for Percent Mortality After Application 7th Day: leaves cut on 7th day; for Percent Mortality After Application 10th Day: leaves cut on 10th day; for Percent Mortality After Application 15th Day: leaves cut on 15th day
Summary of the method: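 Cabbage plantlets sprayed with water-diluted emulsifiable concentrate and held in a greenhouse; leaves cut on days 3, 5, 7, 10 and 15 and fed to 3rd-instar larvae at 25°C. Percent mortality scored after 48 h; 3 replicates, 30 insects each.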

apple leaf miner = assay: Insecticidal effect on apple leaf miner (sprayed apple seedling); format: in vivo, Lithocolletis ringoniella; settings: Phyllonorycter ringoniella, 336 h, 500 ppm, fourteen days after spraying
Method: (§3) (A) A dilute water suspension of a wettable powder prepared as described in Formulation Example 5 was sufficiently sprayed using a spray-gun on a seedling of an apple tree planted in a bisque flower pot to which plant larvae of apple leaf miner just after hatching were parasitic. Thereafter the pots were placed in a green house. Fourteen days after the spraying, bores made by larvae were broken and percent mortality was assessed for all the leaves of each seedling. Three pots were used for each treatment.
as §3, with “(B)” for “(A)”, “7” for “5”

tobacco cutworm [2] = assay: Insecticidal effect on tobacco cutworm (cabbage leaf dip); format: in vivo, Prodenia litura; settings: after 48 hours, 25°C
Summary of the method: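 Cabbage leaves dipped in water-diluted emulsifiable concentrate (two formulations, tests A and B) and air-dried were fed to 3rd-instar tobacco cutworm larvae at 25°C. Percent mortality scored after 48 hours; 3 replicates of 30 insects per compound.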

rice stem borer = assay: Insecticidal effect on rice stem borer, 3rd-instar larvae (rice seedling dip); format: in vivo, Chilo suppressalis; settings: after 72 hours, 25°C
Summary of the method: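 Wettable-powder formulations were diluted in water to set concentrations, and rice seedlings were dipped in them. Ten 3rd-instar larvae were placed per capped cup with the treated seedlings and held at 25°C.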

smaller tea tortrix = assay: Insecticidal effect on smaller tea tortrix (apple leaf dip); format: in vivo; settings: Adoxophyes orana, foliar; Table 9; 100 ppm; after 72 hours, 25°C; wettable powder as Formulation Example 5; read-out: Percent Mortality
Method: Leaves of an apple tree were dipped into a dilute water suspension of a wettable powder prepared as described in Formulation Example 5. After drying in air, the leaves were charged in a 60 ml volume cup made of vinyl chloride resin, and […] 3rd-instar larvae of smaller tea tortrix were put in each cup. The cups were capped and kept at 25°C. After 72 hours, the number of the surviving insects and the dead insects were recorded to determine percent mortality. In each treatment, 3 cups and 30 insects were used in total.

[3] = Table 7, emulsifiable concentrate as Formulation Example 1
[4] = Table 10, wettable powder as Formulation Example 5, read-out: Percent Morality (%)
[5] = Table 3, 500 ppm, emulsifiable concentrate as Formulation Example 1
[6] = Table 1, 100 ppm, wettable powder as Formulation Example 5
[7] = Table 1, 500 ppm, wettable powder as Formulation Example 5
[8] = Table 8, emulsifiable concentrate as Formulation Example 4
[9] = Table 4, 100 ppm, emulsifiable concentrate as Formulation Example 3
[10] = Table 2, 100 ppm, wettable powder as Formulation Example 7

Row | Structure (SMILES) | Phytotoxicity: Kidney Bean (Kidney Bean) | Phytotoxicity: Rice (Rice) | Phytotoxicity: Tea (Tea) | Phytotoxicity: Apple (Apple) | Phytotoxicity: Beet (Beet) | Phytotoxicity: Tomato (Tomato) | Phytotoxicity: Green Pepper (Green Pepper) | Phytotoxicity: Cucumber (Cucumber) | Phytotoxicity: Egg Plant (egg plant) | Phytotoxicity: Cabbage (Cabbage) | Phytotoxicity: Cotton (Cotton) | Percent Mortality (%) (diamond back moth; [3]) | mortality at 500 ppm (apple leaf miner; [4]) [%] | Percent Mortality (%) (tobacco cutworm [2]; [5]) | Percent Mortality (%) (rice stem borer; [6]) | Percent Mortality (%) (rice stem borer; [7]) | mortality at 100 ppm (smaller tea tortrix) [%] | Percent Mortality (%) (diamond back moth; [8]) | Percent Mortality (%) (tobacco cutworm [2]; [9]) | Percent Mortality (%) (rice stem borer; [10]) | further results
1 | CCC(C)SP(=O)(OC)Oc1ccc2c(c1)OC(C)=CC2(C)C (centres unmarked) [Compound No. 16, O-methyl-S-sec-butyl-O-(2,4,4-trimethyl-1,4-benzopyran-7-yi) phosphorothioate] | — | — | — | — | — | — | — | — | — | — | — | 100 | 100 | 100 | 100 | 100 | 100 |  |  |  | Percent Mortality After Application 3rd Day (tobacco cutworm [1]; Table 5): 100%; Percent Mortality After Application 5th Day (tobacco cutworm [1]; Table 5): 100%; Percent Mortality After Application 7th Day (tobacco cutworm [1]; Table 5): 100%; Percent Mortality After Application 10th Day (tobacco cutworm [1]; Table 5): 100%; Percent Mortality After Application 15th Day (tobacco cutworm [1]; Table 5): 100%
2 | CCOP(=O)(Oc1ccc2c(c1)OC(C)(C)C=C2C)SC(C)CC (centres unmarked) [Compound No. 18] | — | — | — | — | — | — | — | — | — | — | — |  | 100 | 100 | 100 | 100 | 100 | 83.3 | 100 | 100 | 
3 | CCCSP(=O)(OCC)Oc1ccc2c(c1)OC(C)CC2(C)C (centres unmarked) [compound 17] | — | — | — | — | — | — | — | — | — | — | — | 100 |  | 100 | 100 | 100 | 100 | 100 | 100 | 100 | Percent Mortality After Application 3rd Day (tobacco cutworm [1]; Table 5): 100%; Percent Mortality After Application 5th Day (tobacco cutworm [1]; Table 5): 100%; Percent Mortality After Application 7th Day (tobacco cutworm [1]; Table 5): 100%; Percent Mortality After Application 10th Day (tobacco cutworm [1]; Table 5): 100%; Percent Mortality After Application 15th Day (tobacco cutworm [1]; Table 5): 53.3%; Percent Mortality After Application 3rd Day (tobacco cutworm [1]; Table 6): 100%; Percent Mortality After Application 5th Day (tobacco cutworm [1]; Table 6): 100%; Percent Mortality After Application 7th Day (tobacco cutworm [1]; Table 6): 100%; Percent Mortality After Application 10th Day (tobacco cutworm [1]; Table 6): 93.3%; Percent Mortality After Application 15th Day (tobacco cutworm [1]; Table 6): 30%; Percent Mortality After Application Immediately after Application (tobacco cutworm [1]; Table 6): 100%
4 | CCOP(=O)(Oc1cccc2c1C(C)=CC(C)(C)O2)SC(C)CC (centres unmarked) [compound 23] | — | — | — | — | — | — | — | — | — | — | — | 100 | 100 | 100 | 100 | 100 | 100 | 100 | 100 | 100 | mortality at 500 ppm (apple leaf miner; Table 11, wettable powder as Formulation Example 7, read-out: Percent Mortality (%)): 100%

From patent EP0054589B1, “Organic phosphoric acid ester derivatives, a process for preparing the same and insecticidal, miticidal or nematocidal compositions containing the same” (priority 1980, dated 1982)
